tested on: 4th stage larvae (L4) of Dirofilaria immitis; test: Dirofilaria immitis, L4 Stage (DiL4) In Vitro Assay; format: cell-based; conditions: Dirofilaria immitis, 72 h, read-out: DiL4 Minimum Effective Dose (MED), approximately 72 hours incubation; L4 larvae assessed for survival or paralysis

| SMILES | minimal effective concentration [µM] |
| --- | --- |
| COc1cc(C)n(Cc2ccc(C[C@H]3OC(=O)[C@H](CC(C)C)N(C)C(=O)[C@@H](C)OC(=O)[C@H](CC(C)C)N(C)C(=O)[C@@H](Cc4ccc(Cn5nc(OC)cc5C)cc4)OC(=O)[C@H](CC(C)C)N(C)C(=O)[C@@H](C)OC(=O)[C@H](CC(C)C)N(C)C3=O)cc2)n1 [Example 1b-168, (3S,6R,9S,12R,15S,18R,21S,24R)-3,9,15,21-tetraisobutyl-6,18-bis(4-((3-methoxy-5-methyl-1H-pyrazol-1-yl)methyl)benzyl)-4,10,12,16,22,24-hexamethyl-1,7,13,19-tetraoxa-4,10,16,22-tetraazacyclotetracosan-2,5,8,11,14,17,20,23-octaone] | 0.001 to 0.01 |
| CC(C)C[C@H]1C(=O)O[C@H](Cc2ccc(CN3CCOc4ccncc43)cc2)C(=O)N(C)[C@@H](CC(C)C)C(=O)O[C@H](C)C(=O)N(C)[C@@H](CC(C)C)C(=O)O[C@H](Cc2ccc(CN3CCOc4ccncc43)cc2)C(=O)N(C)[C@@H](CC(C)C)C(=O)O[C@H](C)C(=O)N1C [Example 9-63, (3S,6R,9S,12R,15S,18R,21S,24R)-6,18-bis[[4-(2,3-dihydropyrido[4,3-b][1,4]oxazin-4-ylmethyl)phenyl]methyl]-3,9,15,21-tetraisobutyl-4,10,12,16,22,24-hexamethyl-1,7,13,19-tetraoxa-4,10,16,22-tetrazacyclotetracosane-2,5,8,11,14,17,20,23-octaone] | 0.001 to 0.01 |
| CC(C)C[C@H]1C(=O)O[C@H](Cc2ccc(Cn3nccc3C3CCCC3)cc2)C(=O)N(C)[C@@H](CC(C)C)C(=O)O[C@H](C)C(=O)N(C)[C@@H](CC(C)C)C(=O)O[C@H](Cc2ccc(Cn3ccc(C4CCCC4)n3)cc2)C(=O)N(C)[C@@H](CC(C)C)C(=O)O[C@H](C)C(=O)N1C [Example 1a-34, (3S,6R,9S,12R,15S,18R,21S,24R)-6-(4-((3-cyclopentyl-1H-pyrazol-1-yl)methyl)benzyl)-18-(4-((5-cyclopentyl-1H-pyrazol-1-yl)methyl)benzyl)-3,9,15,21-tetraisobutyl-4,10,12,16,22,24-hexamethyl-1,7,13,19-tetraoxa-4,10,16,22-tetraazacyclotetracosan-2,5,8,11,14,17,20,23-octaone] | 0.001 to 0.01 |
| CC(C)C[C@H]1C(=O)O[C@H](Cc2ccc(C(C)(C)n3cc(C4CC4)cn3)cc2)C(=O)N(C)[C@@H](CC(C)C)C(=O)O[C@H](C)C(=O)N(C)[C@@H](CC(C)C)C(=O)O[C@H](Cc2ccc(C(C)(C)n3cc(C4CC4)cn3)cc2)C(=O)N(C)[C@@H](CC(C)C)C(=O)O[C@H](C)C(=O)N1C [Example 1c-8, (3S,6R,9S,12R,15S,18R,21S,24R)-6,18-bis(4-(2-(4-cyclopropyl-1H-pyrazol-1-yl)propan-2-yl)benzyl)-3,9,15,21-tetraisobutyl-4,10,12,16,22,24-hexamethyl-1,7,13,19-tetraoxa-4,10,16,22-tetraazacyclotetracosan-2,5,8,11,14,17,20,23-octaone] | ≤ 0.0001 |
| Cc1nn(Cc2ccc(C[C@H]3OC(=O)[C@H](CC(C)C)N(C)C(=O)[C@@H](C)OC(=O)[C@H](CC(C)C)N(C)C(=O)[C@@H](Cc4ccc(Cn5nc(C)c(Cl)c5C)cc4)OC(=O)[C@H](CC(C)C)N(C)C(=O)[C@@H](C)OC(=O)[C@H](CC(C)C)N(C)C3=O)cc2)c(C)c1Cl [Example 1b-51, (3S,6R,9S,12R,15S,18R,21S,24R)-6,18-bis(4-((4-chloro-3,5-dimethyl-1H-pyrazol-1-yl)methyl)benzyl)-3,9,15,21-tetraisobutyl-4,10,12,16,22,24-hexamethyl-1,7,13,19-tetraoxa-4,10,16,22-tetraazacyclotetracosan-2,5,8,11,14,17,20,23-octaone] | 0.0001 to 0.001 |
| CC(C)C[C@H]1C(=O)O[C@H](Cc2ccc(Cn3nccc3-c3ccc(Cl)cc3)cc2)C(=O)N(C)[C@@H](CC(C)C)C(=O)O[C@H](C)C(=O)N(C)[C@@H](CC(C)C)C(=O)O[C@H](Cc2ccc(Cn3nccc3-c3ccc(Cl)cc3)cc2)C(=O)N(C)[C@@H](CC(C)C)C(=O)O[C@H](C)C(=O)N1C [Example 1b-153, (3S,6R,9S,12R,15S,18R,21S,24R)-6,18-bis(4-((5-(4-chlorophenyl)-1H-pyrazol-1-yl)methyl)benzyl)-3,9,15,21-tetraisobutyl-4,10,12,16,22,24-hexamethyl-1,7,13,19-tetraoxa-4,10,16,22-tetraazacyclotetracosan-2,5,8,11,14,17,20,23-octaone] | 0.001 to 0.01 |
| CCOc1cc(-c2ccccc2)nn1Cc1ccc(C[C@H]2OC(=O)[C@H](CC(C)C)N(C)C(=O)[C@@H](C)OC(=O)[C@H](CC(C)C)N(C)C(=O)[C@@H](Cc3ccc(Cn4nc(-c5ccccc5)cc4OCC)cc3)OC(=O)[C@H](CC(C)C)N(C)C(=O)[C@@H](C)OC(=O)[C@H](CC(C)C)N(C)C2=O)cc1 [Example 1b-178, (3S,6R,9S,12R,15S,18R,21S,24R)-6,18-bis(4-((5-ethoxy-3-phenyl-1H-pyrazol-1-yl)methyl)benzyl)-3,9,15,21-tetraisobutyl-4,10,12,16,22,24-hexamethyl-1,7,13,19-tetraoxa-4,10,16,22-tetraazacyclotetracosan-2,5,8,11,14,17,20,23-octaone] | 0.001 to 0.01 |
| CC(C)C[C@H]1C(=O)O[C@H](Cc2ccc(Cn3cc(OCC4CC4)cn3)cc2)C(=O)N(C)[C@@H](CC(C)C)C(=O)O[C@H](C)C(=O)N(C)[C@@H](CC(C)C)C(=O)O[C@H](Cc2ccc(Cn3cc(OCC4CC4)cn3)cc2)C(=O)N(C)[C@@H](CC(C)C)C(=O)O[C@H](C)C(=O)N1C [Example 1b-146, (3S,6R,9S,12R,15S,18R,21S,24R)-6,18-bis(4-((4-(cyclopropylmethoxy)-1H-pyrazol-1-yl)methyl)benzyl)-3,9,15,21-tetraisobutyl-4,10,12,16,22,24-hexamethyl-1,7,13,19-tetraoxa-4,10,16,22-tetraazacyclotetracosan-2,5,8,11,14,17,20,23-octaone] | 0.001 to 0.01 |
| Cc1cc(C#N)nn1Cc1ccc(C[C@H]2OC(=O)[C@H](CC(C)C)N(C)C(=O)[C@@H](C)OC(=O)[C@H](CC(C)C)N(C)C(=O)[C@@H](Cc3ccc(Cn4nc(C#N)cc4C)cc3)OC(=O)[C@H](CC(C)C)N(C)C(=O)[C@@H](C)OC(=O)[C@H](CC(C)C)N(C)C2=O)cc1 [Example 1b-194, 1,1′-(((((2R,5S,8R,11S,14R,17S,20R,23S)-5,11,17,23-tetraisobutyl-4,8,10,16,20,22-hexamethyl-3,6,9,12,15,18,21,24-octaoxo-1,7,13,19-tetraoxa-4,10,16,22-tetraazacyclotetracosane-2,14-diyl)bis(methylene))bis(4,1-phenylene))bis(methylene))bis(5-methyl-1H-pyrazole-3-carbonitrile)] | 0.0001 to 0.001 |

Reference: patent US11331369B2, “Endoparasitic depsipeptides” (Zoetis Services LLC, priority 2017, dated 2022)
